This series is described as follows: Human HepG2 cell viability assay in 384 well format. Format: toxicity, cell-based. Conditions: HepG2 cells, read-out: Inhibition. The arrangement: dose 125 nL, time 70.5 hour; concentration not given beside the values.

Each structure is given as a SMILES string.

On to `Cc1ncc(C(=O)N2CCC(N3C[C@@H](C)O[C@@H](C)C3)CC2)c(=O)[nH]1`, for which the cytotoxicity at 70.5 h is 8.83%.
As to `CC[C@@]1(O)CCN(C(=O)c2ccoc2)C[C@H]1O`, the cytotoxicity at 70.5 h is -7.14%.
For `Cn1ccnc1-c1nccn1C[C@@H]1CCCN2CCCC[C@H]12` the value was 2.02%.
`CN1CCC(N(CCc2ccccc2)C(=O)COCC2CCCO2)CC1` (stereo not drawn): the cytotoxicity at 70.5 h was -0.746%.
For `CN(C)CCNC(=O)c1ccc(OC2CCN(C(=O)CO)CC2)c(Cl)c1` the value was -7.98%; for `O=C1NC(c2cccnc2)=NC12CCN(CCCc1ccccc1)CC2`, -8.89%.
Turning to `COCCOCC(=O)N1CCC2(CCCN(C3CCOCC3)C2=O)C1` (stereo not drawn), the cytotoxicity at 70.5 h came out at 11.4%.
Regarding `Cn1ncc(N2CCC(CNC(=O)[C@@H](N)C3CCCCC3)CC2)cc1=O`, the cytotoxicity at 70.5 h is 3.03%.
For the compound `CCNc1ncc(CN2C[C@H]3CC[C@@H]2CN(C(=O)C2CCC2)C3)cn1`, the cytotoxicity at 70.5 h was -7.7%.
Take `COc1cc2c(cc1C(=O)N1CC(c3ccncc3)C1)CCC2`: the cytotoxicity at 70.5 h was -5.23%.
For the compound `Cc1cnn(CCNc2ncnc3c2CCN(CC2CCOC2)CC3)c1` (stereo not drawn), the cytotoxicity at 70.5 h was -2.24%.
In the case of `CCCN1CCCC2(CCN(Cc3noc(C4CCCC4)n3)C2)C1=O` (stereo not drawn), the cytotoxicity at 70.5 h was found to be 3.33%.
For `Cc1cc(C)nc(CN2CCOC(c3ccc(Cl)cc3)C2)n1` (stereo not drawn), the cytotoxicity at 70.5 h is -1.88%.
Take `O=C(NCc1cnn2ccccc12)NC1CCCC1`: the cytotoxicity at 70.5 h was -15.5%.
As for `COc1cncc(-n2nc(C)c(CC(C)=O)c2C)c1`, the cytotoxicity at 70.5 h worked out at 0.266%.
For `Cc1ccn2c(F)c(C(=O)N3CCC4(CCC(=O)N(C)C4)CC3)nc2c1` the value was -10.1%; for `CCc1cc(C(=O)N2CC[C@@H](c3ccc4ccccc4c3)[C@H](O)C2)[nH]n1`, 35%; for `CCc1cnc(C)nc1NC(CC)c1ncnn1CC` (stereo not drawn), -5.6%.
For `COc1ccc(C(=O)N2CCCCC2c2ccccn2)c(OC)n1` (stereo not drawn) the value was 15.4%; for `O=C(NCCc1cccnc1)c1cn(CCN2CCNCC2)nn1`, -5.26%; for `CCc1cnc(C)nc1NCCN1CCC(O)CC1`, 9.55%.
`CCC(C(=O)NC(C)(C)C)n1cccc(OC)c1=O` (stereo not drawn): the cytotoxicity at 70.5 h is -10.3%.
On to `CCn1cnc(NC(=O)N2CCC(c3ccc(F)cc3)C2)n1` (stereo not drawn), for which the cytotoxicity at 70.5 h is -8.46%.
With `CCn1cc(CNc2ccc3nccnc3c2)cn1`, the cytotoxicity at 70.5 h was 7.17%.
Regarding `Cn1ccnc1SCCNC1CCN(c2ncccn2)CC1`, the cytotoxicity at 70.5 h was -1.29%.
With `CCCOCC1CCN(C(=O)Cn2cccc(OC)c2=O)C1` (stereo not drawn), the cytotoxicity at 70.5 h is -9.9%.
For the compound `COc1ccc(F)c(CN2CC(=O)N(c3ccccc3C)CC2C)c1` (stereo not drawn), the cytotoxicity at 70.5 h is -7.03%.
For `Cc1oc(-c2ccc(F)cc2F)nc1CN1C[C@@H](C)O[C@@H](C)C1`, the cytotoxicity at 70.5 h worked out at 15.1%.
In the case of `Cc1nn(C2CCCCC2)c2nc(C(C)(C)CN3CCOCC3)[nH]c12`, the cytotoxicity at 70.5 h is -6.99%.
Regarding `CSCCC(O)C(=O)N(C)Cc1cnn(-c2ccc(F)cc2)c1` (stereo not drawn), the cytotoxicity at 70.5 h is -3.28%.
Consider `CCN1CCC(CC(=O)N2CCN(c3ccccc3OC)CC2C)CC1` (stereo not drawn), for which the cytotoxicity at 70.5 h was determined as 23.7%.
In the case of `Cc1c(Cn2c(=O)cnc3ccccc32)cnn1C`, the cytotoxicity at 70.5 h was -14.9%.
Consider `Cc1cnc(Cn2cc(-c3cccc(C(C)N(C)C)c3)nn2)cn1` (stereo not drawn), for which the cytotoxicity at 70.5 h was -4.71%.
For `COc1cccc(OCC2CCCN(C(=O)Cc3cccc(O)c3)C2)c1` (stereo not drawn), the cytotoxicity at 70.5 h is -11.3%.
In the case of `O=C(NCCC1COc2ccccc2O1)c1ccc(N2CC(O)C2)nc1` (stereo not drawn), the cytotoxicity at 70.5 h is -6.19%.
`O=C(c1cnc2ccccn12)N1CCCC(c2ccn[nH]2)C1` (stereo not drawn): the cytotoxicity at 70.5 h was -11.2%.
Take `CC(c1ccccn1)N(C)Cc1cccc(C(=O)Nc2nccn2C)c1` (stereo not drawn): the cytotoxicity at 70.5 h was 8.36%.
As to `CN(Cc1ncc[nH]1)c1nc(-c2ccccn2)nc2c1CCNCC2`, the cytotoxicity at 70.5 h was -11.9%.
On to `Cc1ccsc1[C@@H]1CCN(C(=O)CCOc2ccccc2)C[C@H]1O`, for which the cytotoxicity at 70.5 h is -8.93%.
Turning to `NCCn1cc(C(=O)N2CCCCCC2c2cccc(F)c2)nn1` (stereo not drawn), the cytotoxicity at 70.5 h was found to be 13.5%.
With `CCn1c(C)nnc1SCCNc1cc(OC)ncn1`, the cytotoxicity at 70.5 h was -18.6%.
For `Cc1cccnc1CN1CCN(C(=O)c2cc(Cl)c[nH]c2=O)CC1` the value was 8.42%; for `Cc1ccc(F)c(OC2(C(=O)O)CCN(C(=O)c3ccccc3)CC2)c1`, -6.1%; for `Cc1ccc(-c2cc(C(=O)N(C)Cc3noc4c3CCCC4)[nH]n2)s1`, 21.6%.
As to `COc1cc(-c2cccc3c2OC(CN)C3)cc(OC)c1OC` (stereo not drawn), the cytotoxicity at 70.5 h was -1.4%.
In the case of `O=C(N[C@H]1CN(c2ccncc2)C[C@@H]1C1CC1)C1CCOCC1`, the cytotoxicity at 70.5 h was -3.12%.
In the case of `CSc1ncc(C(=O)NCc2cc3n(n2)CCCN(CC(C)C)C3)cn1`, the cytotoxicity at 70.5 h was 5.43%.
In the case of `O=C1OCCN1CC(=O)N1C[C@H]2CC[C@@H]1CN(C(=O)c1ccccc1)C2`, the cytotoxicity at 70.5 h was found to be 2.12%.
`CS(=O)(=O)c1ccc(CN2CCCCC2c2ccc(F)cc2)cc1` (stereo not drawn): the cytotoxicity at 70.5 h is 17.4%.
Turning to `COc1ccc(C)cc1-n1cnnc1C1CC(=O)N(C)C1` (stereo not drawn), the cytotoxicity at 70.5 h is -4.76%.
For `CC(Cc1cncs1)Nc1ncnc2cccc(F)c12` (stereo not drawn) the value was 1.5%; for `Cn1cnnc1CN1CCC2(CCC(=O)N(Cc3ccccc3)C2)CC1`, -4.83%.
On to `Cc1cnc(NCc2csc(C(C)C)n2)nc1-c1cnn(C)c1`, for which the cytotoxicity at 70.5 h is -14.9%.
`O=C(O)C1(O)CCN(c2ccnc3c(C(F)(F)F)cccc23)CC1`: the cytotoxicity at 70.5 h is -25.6%.
Turning to `OC1(CNCCc2csc(-c3ncccn3)n2)CCNC1` (stereo not drawn), the cytotoxicity at 70.5 h was -14.5%.
For `Nc1cc(O)nc(CCNC(=O)CC[C@@H]2CCCN3CCCC[C@H]23)n1` the value was -4.87%; for `CCc1nc(N2CCCC(CCCOC)(C(=O)O)C2)ncc1C` (stereo not drawn), -10.1%; for `CC(C)c1ccn(C2(C(=O)O)CCN(c3ccncc3F)CC2)n1`, -4.07%.
Consider `CC(C)SCCNC(=O)c1cccc2ccnn12`, for which the cytotoxicity at 70.5 h is -9.35%.
Regarding `Cc1[nH]ccc1C(=O)N[C@H]1CN(S(C)(=O)=O)C[C@@H]1C1CC1`, the cytotoxicity at 70.5 h was -5.26%.
Take `O=C1CCC2(CCN(Cc3ncccn3)CC2)CN1CCCO`: the cytotoxicity at 70.5 h was -8.14%.
For `CCNc1ncc(C(=O)NCCCc2ccncc2)cn1`, the cytotoxicity at 70.5 h is -3.04%.
For `N#Cc1cccc(NC2CC(=O)N(C3Cc4ccccc4C3)C2)n1` (stereo not drawn), the cytotoxicity at 70.5 h is 19%.
For `Cc1cnccc1CN(C)C1CCN(c2ncnc3[nH]cnc23)CC1` the value was -6.65%; for `CC(=O)N1CCCC(C(=O)N2CCN(c3cnn(C)c(=O)c3)CC2)C1` (stereo not drawn), 9.66%.
For `COCCN1CCC(CN(C)c2ncnc3c2c(C)nn3C)C1` (stereo not drawn), the cytotoxicity at 70.5 h was determined as 6.13%.
Consider `O=C(Nc1nncs1)N1CCCN(C2CCCCC2)CC1`, for which the cytotoxicity at 70.5 h is -12.6%.
`CN1CCN(c2cc(CCNC(=O)C3CCC3)nc(C3CC3)n2)CC1`: the cytotoxicity at 70.5 h was -6.65%.
For `Cn1nc(C2CN(C(=O)c3cscn3)C2)c2nccnc21` the value was -3.87%.
As for `COc1cccc(-c2nccnc2C2CCN(C(C)=O)CC2)c1`, the cytotoxicity at 70.5 h was -8.61%.
Consider `Cc1cncc(C2CCCN(C(=O)c3scnc3C)C2)n1` (stereo not drawn), for which the cytotoxicity at 70.5 h was -3.5%.
Turning to `CN(C(=O)c1ccccn1)c1nc2c(s1)CCc1c-2cnn1C`, the cytotoxicity at 70.5 h came to 8.04%.
Regarding `Cc1cccc(CN2CCc3c(nc(N4CCCCC4C)[nH]c3=O)C2)n1` (stereo not drawn), the cytotoxicity at 70.5 h is -4.07%.
`Cc1cccc(CN2CCc3c(nc(N4CCC(C)CC4)[nH]c3=O)C2)n1`: the cytotoxicity at 70.5 h is -9.37%.
With `CC1CCCCN1c1nc2c(c(=O)[nH]1)CCN(Cc1cccnc1)C2` (stereo not drawn), the cytotoxicity at 70.5 h is -3.39%.
Regarding `CCC(=O)N1CCc2nc3cc(OC)c(OC)cc3c(=O)n2CC1`, the cytotoxicity at 70.5 h was determined as 29.2%.
For `CCN1CCN(c2ncc(-c3cc(C)no3)c(-c3ccc(C)s3)n2)CC1` the value was -27.4%.
Consider `O=C(O)CCc1cccc(C2CCCN2Cc2ccc(F)c(F)c2)n1` (stereo not drawn), for which the cytotoxicity at 70.5 h is -6.64%.
Consider `Cc1ncccc1Oc1nccnc1C1CCN(C(C)C)CC1`, for which the cytotoxicity at 70.5 h is -2.72%.
As for `Cn1nc(C2CCCN(C(=O)CO)C2)cc1O` (stereo not drawn), the cytotoxicity at 70.5 h stood at 19.8%.
For `CC(=O)N1CCNCC1c1cccc(C(=O)N(C)C)c1` (stereo not drawn) the value was -8.36%.
With `O=C(c1n[nH]c(=O)c2ccccc12)N1CCCCC1c1ccn[nH]1` (stereo not drawn), the cytotoxicity at 70.5 h was -8.63%.
With `CNC(=O)C1(c2cnccn2)CCCN1C(=O)c1ccn(C)n1` (stereo not drawn), the cytotoxicity at 70.5 h was -1.48%.
`CC(C)C(=O)N1CCN(Cc2cc(-c3ccncc3)nn2C)CC1`: the cytotoxicity at 70.5 h amounted to 31.9%.
As for `CCC(=O)N1CCN(Cc2cc(-c3ccncc3)nn2C)CC1`, the cytotoxicity at 70.5 h was found to be 5.2%.
With `CN1CCCC[C@@H]2[C@H]1[C@@H](c1ccccc1)CCN2C(=O)c1cnccn1`, the cytotoxicity at 70.5 h worked out at 1.76%.
With `Cc1nc(O)c2nnn(C[C@H]3CCCN3C(=O)c3cccc(F)c3)c2n1`, the cytotoxicity at 70.5 h is -7.83%.
As for `CN1CCCC(c2n[nH]c3ncccc23)C1` (stereo not drawn), the cytotoxicity at 70.5 h is -11.4%.
Turning to `CCc1c(C)nc2cc(C3CCN(Cc4ccccc4F)C3)nn2c1O` (stereo not drawn), the cytotoxicity at 70.5 h is -2.56%.
As for `O=C(c1ccccn1)N1CCc2nc(-c3cnccn3)nc(O)c2C1`, the cytotoxicity at 70.5 h is -3.62%.
On to `O=C(Cc1ccccn1)N1CCc2nc(-c3cnccn3)nc(O)c2C1`, for which the cytotoxicity at 70.5 h is -4.01%.
Take `COc1ccc(-c2cc(C3CCCCCN3S(=O)(=O)N(C)C)on2)cc1` (stereo not drawn): the cytotoxicity at 70.5 h came out at 8.12%.
For the compound `Cc1cc(O)nc(C2CCCN(Cc3ccncc3)C2)n1` (stereo not drawn), the cytotoxicity at 70.5 h was -0.0773%.
For `c1cnc2c(C3CCN(Cc4ccsc4)CC3)n[nH]c2n1` the value was 42.8%.
For the compound `O=C1NCC2(CCCN(CCc3ccccc3)C2)Oc2ccccc21` (stereo not drawn), the cytotoxicity at 70.5 h came out at 21.7%.
`Cc1c(C2CCCN(C(=O)Cc3ccccn3)C2)n2c(nc1=O)CCC2` (stereo not drawn): the cytotoxicity at 70.5 h came to 0.807%.
For `O=S(=O)(N1CCCCC1)N1CCc2nc(C3CCNCC3)ncc2C1` the value was -13.5%; for `Cc1cc(C)nc(Nc2cccc(C3CCCN(C)C3)n2)n1` (stereo not drawn), 0.625%.

(Values after ChEMBL document CHEMBL3507680, “University of Dundee, Gates Library screen for HepG2 cell viability”.)
